The target of the assay is T1, CymA (Shewanella oneidensis, UniProt Q8E8S0).
T1 sequence (Q8E8S0 1-187): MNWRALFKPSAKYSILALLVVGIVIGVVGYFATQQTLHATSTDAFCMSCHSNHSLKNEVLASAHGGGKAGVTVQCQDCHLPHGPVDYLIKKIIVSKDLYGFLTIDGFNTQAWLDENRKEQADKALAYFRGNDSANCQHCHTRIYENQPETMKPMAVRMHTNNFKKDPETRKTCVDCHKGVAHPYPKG
In words: protein-film cyclic voltammetry, inhibition of menaquinone-7 reduction. In kind it is biochemical.

As to `CCCCCCCc1cc(O)c2ccccc2[n+]1[O-]` [HQNO], the Ki (in general, a measure of affinity in units of concentration, obtained from inhibition or displacement) was 0.8 µM.

The record behind these values is article PMC3340143 (The Journal of Biological Chemistry, 2012).
